# Results reported in PMC10649274 (International Journal of Molecular Sciences, 2023).
# Where “and” joins values, the source holds several entries; their conditions need not be identical. Equal values may be shown once. Read-outs that look alike come from different tables or passages of the source.
# Legend:
# [1] = test system: animal pancreatitis models; details: cited from earlier work
# native NMDA receptors [2] = assay: Whole-cell patch clamp of NMDA plus glycine induced currents in isolated CA1 pyramidal neurons; type: cell-based, rat
# Procedure: The rats were anesthetised with sevoflurane and then decapitated. The brains were brought out quickly and cooled to 2–4 °C. […] All experiments were performed at room temperature.
# Vibrodissociation method was used to free CA1 pyramidal neurons from slices. This method allows for isolating cells without enzymatic treatment and keeping them in more native state. Pyramidal cells were isolated from the stratum pyramidale and distinguished from non-pyramidal cells on the basis of pyramidal-like somata and preserved apical dendrites.
# To record membrane currents in response to applications of NMDA and glycine, the whole-cell configuration of patch clamp technique was used. Series resistance (<20 MΩ) was compensated by 70–80% and monitored during experiments. Only cells with stable holding currents were used in further analysis. The current signals were amplified using EPC-8 (HEKA Electronics, Lambrecht, Germany), filtered at 5 kHz, sampled, and stored on a personal computer. RSC-200 (BioLogic Science Instruments, Claix, France) perfusion system was used to apply the drugs under computer control. […] The pipettes with resistance of 2–5 MΩ were filled with the following solution (in mM): CsF 100, CsCl 40, NaCl 5, CaCl2 0.5, EGTA 5, HEPES 10 (pH adjusted to 7.2 with CsOH). […] Other reagents were purchased from MedChemExpress (Monmouth Junction, NJ, USA), Sigma (St. Louis, MO, USA), or Tocris Bioscience (Bristol, UK).
# NMDA receptors were activated with 100 µM NMDA plus 10 µM glycine unless otherwise stated. […] Kinetics of transient processes of more than 20 ms duration were approximated with single or double exponential functions. In case of double exponential fitting, the weighted time constant was used.
# native NMDA receptors [3] = assay: Analysis of voltage dependence of NMDA receptor block (Woodhull model with voltage-independent component, Equation (2)); type: cell-based, rat
# Procedure: NMDA receptors were activated with 100 µM NMDA plus 10 µM glycine unless otherwise stated. The percentages of blocking of the steady-state or peak currents by different drug concentrations were measured at −80, −30 or +30 mV holding voltages. Kinetics of transient processes of more than 20 ms duration were approximated with single or double exponential functions. In case of double exponential fitting, the weighted time constant was used.
# The voltage dependence of compounds’ action was analyzed with the classical Woodhull model with the addition of a voltage-independent component. […] Kb is the affinity of a drug for the channel, and δ is the electrical depth of the binding site. The δ value reflects the fraction of membrane electric field that the charged blocking molecule crosses on its pathway between the external media and the binding site in the channel.
# Thus, we deduced Equation (2), taking it into account and assuming that the binding to the deep and shallow site is independent:(2) B=100−100/(1+C/(Kvd∗exp〖Fzδ/RTV〗)+C/Kvi+(C∗C)/((Kvd∗exp〖Fzδ/RTV〗∗Kvi))
# In this equation, Kvd is the affinity of the drug to the deep site, Kvi—the affinity of the drug to the shallow site, and other parameters are the same as in Equation (1).
# All experimental data are presented as the mean ± SD estimated from at least four experiments (cells). Significance of the effects was tested with t-tests. Differences were considered significant at p < 0.05. Concentration dependencies were approximated with Hill equation. Voltage dependencies were approximated with Equation (2). […] Approximation error values were taken as the precision measures.
# [4] = biological target: GLUN2B-containing NMDA receptor; details: fractionated rat brain membranes; read-out: IC50 of [3H]ifenprodil binding inhibition; cited from earlier work
# [5] = test system: rat retinal excitotoxicity model; details: cited from earlier work
# native NMDA receptors [6] = details: cited from earlier work
# native NMDA receptors [7] = details: cited from earlier work; remark: listed apart in the source
smiles,measurement,setting,value
N=C(N)c1ccc2cc(OC(=O)c3ccc(NC4=NCCN4)cc3)ccc2c1 [Sepimostat],activity in animal pancreatitis models,[1],significant activity
same,nature of voltage-independent component of inhibition,native NMDA receptors [2],agonist-dependent but non-competitive
same,% block,"native NMDA receptors [2]; 5 µM, 3 mM NMDA, +30 mV, n = 4",25 ± 4%
same,% block,"native NMDA receptors [2]; 5 µM, 3 mM NMDA, −30 mV, n = 10",20 ± 5%
same,inhibition at high NMDA concentrations,"native NMDA receptors [2]; 5 µM, 1000 and 3000 µM NMDA, −80 mV",about 50%
same,% block,"native NMDA receptors [2]; 5 µM, +30 mV, representative trace, Figure 2A",47%
same,% block,"native NMDA receptors [2]; 5 µM, −30 mV, NMDA 30 µM, Figure 5A",78%
same,% block,"native NMDA receptors [2]; 5 µM, −30 mV, NMDA 1 mM, Figure 5A",26%
same,% block,"native NMDA receptors [2]; 5 µM, −30 mV, representative trace, Figure 2A",49%
same,% block,"native NMDA receptors [2]; 5 µM, −80 mV, NMDA 30 µM, Figure 5A",78%
same,% block,"native NMDA receptors [2]; 5 µM, −80 mV, NMDA 1 mM, Figure 5A",44%
same,% block,"native NMDA receptors [2]; 5 µM, −80 mV, representative trace, Figure 2A",57%
same,% block,"native NMDA receptors [2]; 5 µM, −120 mV, representative trace, Figure 2A",72%
same,plateau/peak ratio in the presence of blocker,"native NMDA receptors [2]; 10 µM, −80 mV, control 0.6 ± 0.1, n = 4",1.1 ± 0.3
same,normalized plateau/peak ratio ((IBS/IB0)/(ICS/IC0)),"native NMDA receptors [2]; 10 µM, −80 mV, n = 4",1.8 ± 0.1
same,trapping in double-pulse protocol,"native NMDA receptors [2]; 30 µM, n = 5",no signs of trapping
same,τfall of overshoot,"native NMDA receptors [2]; 30 µM, overshoot falling phase, n = 4",770 ± 140 ms
same,τrise of overshoot,"native NMDA receptors [2]; 30 µM, overshoot rising phase, n = 4",62 ± 15 ms
same,amplitude of overshoot relative to steady-state control response,"native NMDA receptors [2]; 30 µM, washout in the presence of agonists, n = 4",1.8 ± 0.3
same,% block,"native NMDA receptors [2]; 30 µM, −80 mV",> 90%
same,amplitude of tail currents relative to steady-state control response,"native NMDA receptors [2]; 30 µM, −80 mV, washout in the absence of agonists, n = 6",1.3 ± 0.5
same,IC50,"native NMDA receptors [2]; +30 mV holding voltage, steady-state, read-out: IC50, steady-state component",5.8 ± 1.5 µM
same,change of inhibition with increase of NMDA concentration,native NMDA receptors [2]; −30 mV,attenuated
same,competition with Mg2+ for binding site in channel pore,"native NMDA receptors [2]; −30 mV, 1 mM Mg2+",does not compete
same,IC50,"native NMDA receptors [2]; −30 mV, 1 mM Mg2+, n = 7, read-out: IC50 in the presence of magnesium",3.6 ± 1.1 µM
same,IC50,"native NMDA receptors [2]; −30 mV, no Mg2+, n = 5, read-out: IC50 in the absence of magnesium",3.6 ± 1 µM
same,change of inhibition with increase of NMDA concentration from 30 to 1000 µM,native NMDA receptors [2]; −80 mV,significantly decreased
same,type of channel block (interaction with channel gate),native NMDA receptors [2]; −80 mV,foot-in-the-door
same,IC50,"native NMDA receptors [2]; −80 mV holding voltage, NMDA 100 µM + glycine 10 µM, steady-state (plateau) current, read-out: IC50, steady-state component",3.5 ± 0.3 µM
same,IC50,"native NMDA receptors [2]; −80 mV, NMDA 100 µM + glycine 10 µM, peak current, read-out: IC50, peak component",1.8 ± 0.4 µM
same,voltage dependence of NMDA receptor inhibition,native NMDA receptors [3]; 5 µM,mostly voltage-independent with a small voltage-dependent component
same,Kd,"native NMDA receptors [3]; Equation (2) fit, zδ free, steady-state, read-out: Kvd, constant for voltage-dependent binding (deep site)",~130 µM
same,Kd,"native NMDA receptors [3]; Equation (2) fit, zδ free, steady-state, read-out: Kvi, constant for voltage-independent binding (shallow site)",7 ± 1 µM
same,Kd,"native NMDA receptors [3]; Equation (2) with fixed zδ 0.55 (monocation), read-out: Kvd, fixed zδ (converted)",102 µM
same,Kd,"native NMDA receptors [3]; Equation (2) with fixed zδ 0.55 (monocation), read-out: Kvi, fixed zδ (converted)",7 ± 1 µM
same,IC50,[4],29.8 µM
same,retinal protection,[5],retinoprotective properties
N=C(N)c1ccc2cc(OC(=O)c3ccc(N=C(N)N)cc3)ccc2c1 [Nafamostat],voltage dependence of NMDA receptor inhibition,native NMDA receptors [6],strongly voltage-dependent
same,activity in animal pancreatitis models,[1],significant activity
same,change of inhibition with increase of NMDA concentration from 30 to 1000 µM,native NMDA receptors [2]; holding voltage not stated,not attenuated significantly
same,effect on plateau/peak ratio,native NMDA receptors [7],did not significantly change the plateau/peak ratio
same,overshoots after washout,native NMDA receptors [7],did not demonstrate overshoots
same,type of channel block (interaction with channel gate),native NMDA receptors [7],foot-in-the-door
same,activity in the presence of magnesium,"native NMDA receptors [7]; −30 mV, 1 mM Mg2+",attenuated in the presence of magnesium
same,IC50,"native NMDA receptors [7]; −30 mV, 1 mM Mg2+, read-out: IC50 in the presence of magnesium",1.7 ± 0.2 µM
same,IC50,"native NMDA receptors [7]; −80 mV holding voltage, native NMDA receptors, earlier papers of the authors, read-out: IC50, −80 mV",0.2 ± 0.04 µM
same,Kd,"native NMDA receptors [3]; Equation (2) fit, zδ free, reanalysis of the authors' earlier voltage dependence data [16],[17], read-out: Kvd",12 ± 3 µM
same,Kd,"native NMDA receptors [3]; Equation (2) fit, zδ free, reanalysis of the authors' earlier voltage dependence data [16],[17], read-out: Kvi",2.9 ± 0.5 µM
same,Kd,"native NMDA receptors [3]; Equation (2) with fixed zδ (0.55 mono-, 1.1 dicationic), reanalysis of earlier data [16],[17], read-out: Kvd, fixed zδ (converted)",10 µM and 10.5 µM
same,Kd,"native NMDA receptors [3]; Equation (2) with fixed zδ (0.55 mono-, 1.1 dicationic), reanalysis of earlier data [16],[17], read-out: Kvi, fixed zδ (converted)",3 µM
same,IC50,[4],4.52 µM
same,retinal protection,[5],retinoprotective properties
